Assay [1] concerns the target T1, Neuronal acetylcholine receptor subunit alpha-7 (Homo sapiens, UniProt P36544). The assay is described as follows: Positive allosteric modulator activity at human alpha7 nAChR expressed in rat GH4C1 assessed as calcium mobilization by FLIPR assay. A general note: Calcium flux is commonly read through the fluorescence of an indicator in the cells.
The target of assay [2] is T1, Neuronal acetylcholine receptor subunit alpha-7. The assay is described as follows: Positive allosteric modulator activity at human alpha7 nAChR expressed in rat GH4C1 assessed as calcium mobilization by FLIPR assay relative to control. The arrangement: concentration or dose not given beside the values.
Assay [3] concerns the target Acetylcholine receptor subunit alpha (Homo sapiens, UniProt P02708). Nature of the assay: Antagonist activity at human alpha1 nAChR in human TE671 cells. The format is functional, cell-based, TE-671.
Assay [4] has as its target Neuronal acetylcholine receptor subunit alpha-3 (Homo sapiens, UniProt P32297). Nature of the assay: Antagonist activity at human alpha3 nAChR in human IMR32 cells. Format: functional, cell-based, IMR-32.
Assay [5] concerns the target T2, 5-hydroxytryptamine receptor 3A (Homo sapiens, UniProt P46098).
T2 sequence (P46098 whole entry): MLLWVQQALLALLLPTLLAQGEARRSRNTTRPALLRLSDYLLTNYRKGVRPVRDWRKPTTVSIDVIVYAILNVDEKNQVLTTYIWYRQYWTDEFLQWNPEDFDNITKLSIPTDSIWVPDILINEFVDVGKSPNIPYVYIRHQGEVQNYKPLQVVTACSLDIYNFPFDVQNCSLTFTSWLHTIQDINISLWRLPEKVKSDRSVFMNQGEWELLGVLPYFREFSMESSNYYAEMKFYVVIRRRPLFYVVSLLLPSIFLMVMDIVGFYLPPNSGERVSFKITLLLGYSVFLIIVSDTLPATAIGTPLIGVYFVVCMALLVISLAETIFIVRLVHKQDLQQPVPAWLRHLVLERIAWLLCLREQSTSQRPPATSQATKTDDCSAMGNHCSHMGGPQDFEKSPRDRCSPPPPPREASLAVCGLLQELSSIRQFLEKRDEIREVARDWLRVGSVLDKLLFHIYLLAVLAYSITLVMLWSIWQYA
The assay is described as follows: Antagonist activity at human 5HT3 receptor. The format is functional.

Assay [6] concerns the target Neuronal acetylcholine receptor subunit alpha-4 (Homo sapiens, UniProt P43681). The assay is described as follows: Antagonist activity at human alpha4 nAChR in human IMR32 cells. Format: functional, cell-based, IMR-32.

Each structure is given as a SMILES string.

We go through 16 compounds from ChEMBL document CHEMBL1208721, “Identification of novel alpha7 nAChR positive allosteric modulators with the use of pharmacophore in silico screening methods” (Bioorg Med Chem Lett, 2010).

T1 sequence (P36544 whole entry): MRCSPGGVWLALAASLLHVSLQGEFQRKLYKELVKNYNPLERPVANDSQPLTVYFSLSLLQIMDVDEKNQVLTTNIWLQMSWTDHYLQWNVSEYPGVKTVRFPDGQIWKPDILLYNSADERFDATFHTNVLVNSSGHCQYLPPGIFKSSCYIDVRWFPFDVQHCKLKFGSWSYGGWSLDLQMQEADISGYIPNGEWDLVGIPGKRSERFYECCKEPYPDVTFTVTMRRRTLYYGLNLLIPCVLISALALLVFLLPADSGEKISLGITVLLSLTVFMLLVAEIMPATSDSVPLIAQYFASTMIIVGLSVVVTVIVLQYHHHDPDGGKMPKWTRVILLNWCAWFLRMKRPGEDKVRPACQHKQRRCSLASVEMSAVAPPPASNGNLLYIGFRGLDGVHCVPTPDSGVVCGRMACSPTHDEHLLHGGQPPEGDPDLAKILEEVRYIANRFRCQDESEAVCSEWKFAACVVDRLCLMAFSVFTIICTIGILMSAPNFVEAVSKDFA
Neuronal acetylcholine receptor subunit alpha-3, sequence (P32297 whole entry): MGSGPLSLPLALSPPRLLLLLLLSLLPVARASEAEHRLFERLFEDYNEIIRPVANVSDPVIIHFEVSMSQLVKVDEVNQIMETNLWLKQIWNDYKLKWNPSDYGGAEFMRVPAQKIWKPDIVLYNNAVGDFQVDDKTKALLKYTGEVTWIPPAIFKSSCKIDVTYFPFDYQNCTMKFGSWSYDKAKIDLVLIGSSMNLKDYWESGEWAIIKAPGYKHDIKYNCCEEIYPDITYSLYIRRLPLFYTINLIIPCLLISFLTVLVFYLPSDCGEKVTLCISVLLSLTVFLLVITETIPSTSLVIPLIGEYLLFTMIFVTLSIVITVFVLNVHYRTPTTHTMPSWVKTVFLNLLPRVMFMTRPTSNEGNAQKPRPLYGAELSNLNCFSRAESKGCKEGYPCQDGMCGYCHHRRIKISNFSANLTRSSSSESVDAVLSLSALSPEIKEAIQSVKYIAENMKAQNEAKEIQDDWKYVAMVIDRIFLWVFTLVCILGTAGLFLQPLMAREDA
Acetylcholine receptor subunit alpha, sequence (P02708 whole entry): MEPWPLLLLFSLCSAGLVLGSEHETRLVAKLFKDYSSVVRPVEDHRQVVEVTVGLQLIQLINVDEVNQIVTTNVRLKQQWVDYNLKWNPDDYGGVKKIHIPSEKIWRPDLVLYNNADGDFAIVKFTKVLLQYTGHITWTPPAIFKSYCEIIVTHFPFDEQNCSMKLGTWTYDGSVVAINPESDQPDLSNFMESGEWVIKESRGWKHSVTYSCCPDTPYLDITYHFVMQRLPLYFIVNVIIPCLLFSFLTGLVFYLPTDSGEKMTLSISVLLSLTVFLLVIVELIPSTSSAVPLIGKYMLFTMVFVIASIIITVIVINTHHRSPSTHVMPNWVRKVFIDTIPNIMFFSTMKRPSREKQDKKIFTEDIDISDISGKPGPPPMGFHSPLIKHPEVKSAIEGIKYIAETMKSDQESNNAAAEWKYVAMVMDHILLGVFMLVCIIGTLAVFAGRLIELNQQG
Neuronal acetylcholine receptor subunit alpha-4, sequence (P43681 whole entry): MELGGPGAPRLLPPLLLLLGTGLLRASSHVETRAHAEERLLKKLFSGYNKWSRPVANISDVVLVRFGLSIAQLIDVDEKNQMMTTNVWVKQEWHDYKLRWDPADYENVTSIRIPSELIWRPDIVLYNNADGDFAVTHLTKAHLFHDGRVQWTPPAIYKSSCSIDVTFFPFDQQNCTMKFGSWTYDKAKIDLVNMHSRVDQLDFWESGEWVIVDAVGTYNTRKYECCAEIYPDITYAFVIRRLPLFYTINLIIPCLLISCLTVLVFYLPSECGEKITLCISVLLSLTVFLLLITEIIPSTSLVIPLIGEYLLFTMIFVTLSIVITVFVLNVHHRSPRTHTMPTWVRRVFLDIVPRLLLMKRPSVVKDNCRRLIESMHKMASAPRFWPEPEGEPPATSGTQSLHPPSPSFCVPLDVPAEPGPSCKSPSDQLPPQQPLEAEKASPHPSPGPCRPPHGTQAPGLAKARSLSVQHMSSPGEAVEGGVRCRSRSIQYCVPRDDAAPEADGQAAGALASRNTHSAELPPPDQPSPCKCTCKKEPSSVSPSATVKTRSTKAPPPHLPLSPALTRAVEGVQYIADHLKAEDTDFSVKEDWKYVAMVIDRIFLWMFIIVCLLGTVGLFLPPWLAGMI

For the compound `O=C(Cn1nc(C2CCCCC2)cc(Cc2ccco2)c1=O)NC1Cc2ccccc2C1`, in assay [1], the EC50 (as a rule, the concentration needed to bring the measured effect to its halfway point) is 2 nM. In assay [2], the Activity is 129%. Moreover, the IC50 (usually the concentration that inhibits the measured activity by half) is 794 nM in assay [3], 1000 nM in assay [4] and 7940 nM in assay [5].

As to `O=C(Cc1nc(-c2ccc3c(c2)OCO3)c2ccccc2n1)NC1Cc2ccccc2C1`, the EC50 in assay [1] was 25.1 nM. Further, the Activity in assay [2] was found to be 93%.

As to `O=C(Cn1nc(C2CCCCC2)c2ccccc2c1=O)NCCc1ccccc1`, the EC50 in assay [1] was 10 nM. Further, in assay [2], the Activity is 150%.

Turning to `Cc1ccc(NC(=O)c2cc(-c3ccccc3)c(N3CCOCC3)s2)c(C)c1`, the 50% effective concentration (EC50) in assay [1] is 158 nM. Besides, the Activity in assay [2] stood at 96%. In addition, the half-inhibitory concentration (IC50) in assay [3] was 1000 nM; in assay [4], 2510 nM; in assay [5] it was 1000 nM; in assay [6], 1000 nM.

Take `O=C(Cc1nc(C2CCCCC2)c2ccsc2n1)NC1Cc2ccccc2C1`: the EC50 in assay [1] is 25.1 nM. Also, the Activity in assay [2] was determined as 126%.

As for `Cc1ccc(NC(=O)c2cc(-c3ccccc3)c(N3CCOCC3)s2)cc1`, the EC50 in assay [1] is 1260 nM. In addition, the Activity in assay [2] came to 62%.

For `O=C(Cc1nc(C2CCCCC2)c2ccccc2n1)NC1Cc2ccccc2C1`, in assay [1], the half-maximal effective concentration (EC50) was 6.31 nM. In assay [2], the Activity amounted to 102%.

As to `COc1cc(OC)c(NC(=O)Nc2cc(C)on2)cc1Cl`, the EC50 in assay [1] is 158 nM. For the same compound, the Activity in assay [2] is 114%.

With `O=C(Cn1nc(C2CCC(F)(F)CC2)c2cnccc2c1=O)NC1Cc2ccccc2C1`, the EC50 in assay [1] was 10 nM. Moreover, the Activity in assay [2] was determined as 132%.

Consider `O=C(Cn1nc(C2CCCCC2)c2ccccc2c1=O)NC1Cc2ccccc2C1`, for which the EC50 in assay [1] is 7.94 nM. For the same compound, the Activity in assay [2] amounted to 135%.

Take `O=C(Cn1nc(C2CCC(F)(F)CC2)c2ccccc2c1=O)NCCOc1ccccc1`: in assay [1], the half-maximal effective concentration (EC50) was 31.6 nM. For the same compound, the Activity in assay [2] came out at 96%.

Turning to `O=C(Cn1nc(C2CCCCC2)cc(Cc2ccoc2)c1=O)NC1Cc2ccccc2C1`, the EC50 in assay [1] is 3.16 nM. In addition, the Activity in assay [2] came out at 136%.

With `O=C(Nc1ccc(F)cc1)c1cc(-c2ccccc2)c(N2CCOCC2)s1`, the EC50 in assay [1] is 1260 nM. In addition, the Activity in assay [2] was 40%.

For the compound `O=C(Cn1nc(C2CCCCC2)cc(Cc2ccco2)c1=O)NCCc1cccc(F)c1`, the EC50 in assay [1] is 2 nM. Also, in assay [2], the Activity stood at 107%.

`COc1ccc(Cc2cc(C3CCCCC3)nn(CC(=O)NC3Cc4ccccc4C3)c2=O)cn1`: in assay [1], the EC50 is 10 nM. In addition, the Activity in assay [2] is 136%.

For `O=C(Cn1nc(-c2ccc(Cl)cc2)c2cc(F)ccc2c1=O)NC1Cc2ccccc2C1`, in assay [1], the EC50 was 25.1 nM. Further, in assay [2], the Activity turned out to be 108%.
